US20230150970A1, “AMINOPYRIMIDINE DERIVATIVES AND THEIR USE AS ARYL HYDROCARBON RECEPTOR MODULATORS” (DONG-A ST CO., LTD., priority 2020, published 2023)

Target: T1, AhR (Homo sapiens, UniProt P35869)
T1 sequence (P35869 11-848): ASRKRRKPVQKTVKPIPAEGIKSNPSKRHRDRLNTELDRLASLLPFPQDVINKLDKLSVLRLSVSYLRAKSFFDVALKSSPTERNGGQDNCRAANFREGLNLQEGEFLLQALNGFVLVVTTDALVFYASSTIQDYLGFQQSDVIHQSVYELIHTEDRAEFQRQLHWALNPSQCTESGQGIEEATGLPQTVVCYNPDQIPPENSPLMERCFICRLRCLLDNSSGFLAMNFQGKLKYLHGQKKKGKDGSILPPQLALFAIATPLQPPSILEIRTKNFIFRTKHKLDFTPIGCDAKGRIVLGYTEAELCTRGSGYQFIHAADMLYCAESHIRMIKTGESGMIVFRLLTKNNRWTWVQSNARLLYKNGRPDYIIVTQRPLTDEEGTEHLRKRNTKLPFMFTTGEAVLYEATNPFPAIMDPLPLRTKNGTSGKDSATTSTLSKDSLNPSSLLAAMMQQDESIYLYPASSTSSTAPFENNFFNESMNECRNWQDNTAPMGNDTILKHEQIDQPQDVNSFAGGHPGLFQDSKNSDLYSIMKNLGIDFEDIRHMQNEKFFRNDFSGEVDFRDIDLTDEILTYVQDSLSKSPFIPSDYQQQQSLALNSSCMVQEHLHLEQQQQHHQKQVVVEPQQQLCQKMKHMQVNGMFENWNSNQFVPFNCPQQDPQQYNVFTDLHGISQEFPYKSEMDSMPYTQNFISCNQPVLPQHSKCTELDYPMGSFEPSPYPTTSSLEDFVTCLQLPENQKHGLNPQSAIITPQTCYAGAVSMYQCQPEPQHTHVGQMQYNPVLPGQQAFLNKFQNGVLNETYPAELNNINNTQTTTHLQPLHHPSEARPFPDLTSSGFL
Experiment: In Vitro Assay 1: XRE-luciferase reporter assay, antagonism in human cell line (HepG2)
Settings: Assay 1: AhR-Luc Human Antagonism (IC50, nM), unmarked values: kynurenine 200 μM, 6 hours

First: OC[C@@H]1CN(c2cc(-c3ccc(C(F)(F)F)cc3)nc(-c3cccnc3)n2)CCN1 [Example 308, (S)-(4-(2-(pyridin-3-yl)-6-(4-(trifluoromethyl)phenyl)pyrimidin-4-yl)piperazin-2-yl)methanol]
Second: OC[C@H]1CN(c2cc(-c3ccc(C(F)(F)F)cc3)nc(-c3cccnc3)n2)CCN1 [Example 309, (R)-(4-(2-(pyridin-3-yl)-6-(4-(trifluoromethyl)phenyl)pyrimidin-4-yl)piperazin-2-yl)methanol]
The IC50 of the first is higher: 100 to 1000 nM for the first, 10 to 100 nM for the second. The second is the more potent here.

First: O=C(O)[C@@H]1CCN(c2cc(-c3ccc(C(F)(F)F)cc3)nc(-c3cccnc3)n2)C1 [Example 310, (R)-1-(2-(pyridin-3-yl)-6-(4-(trifluoromethyl)phenyl)pyrimidin-4-yl)pyrrolidine-3-carboxylic acid]
Second: O[C@H]1CCN(c2cc(-c3ccc(C(F)(F)F)cc3)nc(-c3cccnc3)n2)C1 [Example 340, (S)-1-(2-(pyridin-3-yl)-6-(4-(trifluoromethyl)phenyl)pyrimidin-4-yl)pyrrolidin-3-ol]
The IC50 of the first is higher: 100 to 1000 nM for the first, less than 10 nM for the second. The second is the more potent here.

`O=C(O)[C@@H]1CCN(c2cc(-c3ccc(Cl)cc3)nc(-c3cccnc3)n2)C1` [Example 311, (R)-1-(6-(4-chlorophenyl)-2-(pyridin-3-yl)pyrimidin-4-yl)pyrrolidine-3-carboxylic acid] and `OC1CCCCN(c2cc(-c3ccc(Cl)cc3)nc(-c3cccnc3)n2)C1` (centres unmarked) [Example 338, 1-(6-(4-chlorophenyl)-2-(pyridin-3-yl)pyrimidin-4-yl)azepan-3-ol] fall in the same range of IC50: 100 to 1000 nM for the first, 100 to 1000 nM for the second.

First: Cn1cc(-c2nc(-c3ccc(Cl)cc3)cc(N3CC[C@@H](C(=O)O)C3)n2)cn1 [Example 313, (R)-1-(6-(4-chlorophenyl)-2-(1-methyl-1H-pyrazol-4-yl)pyrimidin-4-yl)pyrrolidine-3-carboxylic acid]
Second: Cn1cc(-c2nc(-c3ccc(Cl)cc3)cc(N3CCN(S(C)(=O)=O)CC3)n2)cn1 [Example 321, 4-(4-chlorophenyl)-2-(1-methyl-1H-pyrazol-4-yl)-6-(4-(methylsulfonyl)piperazin-1-yl)pyrimidine]
The IC50 of the first is higher: greater than 1000 nM for the first, 100 to 1000 nM for the second.

First: O[C@H]1CCN(c2cc(-c3ccc(N4CCOCC4)nc3)nc(-c3cccnc3)n2)C1 [Example 315, (S)-1-(6-(6-morpholinopyridin-3-yl)-2-(pyridin-3-yl)pyrimidin-4-yl)pyrrolidin-3-ol]
Second: OCC1CCN(c2cc(-c3ccc(F)nc3)nc(-c3cccnc3)n2)CC1 [Example 318, (1-(6-(6-fluoropyridin-3-yl)-2-(pyridin-3-yl)pyrimidin-4-yl)piperidin-4-yl)methanol]
The IC50 of the first is lower: less than 10 nM for the first, 10 to 100 nM for the second.

Going from `Oc1cc(Cl)ccc1-c1cc(N2CC[C@H](O)C2)nc(-c2cccnc2)n1` [Example 316, (S)-1-(6-(4-chloro-2-hydroxyphenyl)-2-(pyridin-3-yl)pyrimidin-4-yl)pyrrolidin-3-ol] to `Oc1ncccc1-c1cc(N2CC[C@H](O)C2)nc(-c2cccnc2)n1` [Example 317, (S)-3-(6-(3-hydroxypyrrolidin-1-yl)-2-(pyridin-3-yl)pyrimidin-4-yl)pyridin-2-ol], the IC50 rises from less than 10 nM to greater than 1000 nM. The first is the more potent here.

`OC1CN(c2cc(-c3ccc(Cl)cc3)nc(-c3cccnc3)n2)C1` [Example 319, 1-(6-(4-chlorophenyl)-2-(pyridin-3-yl)pyrimidin-4-yl)azetidin-3-ol] and `OCC1CN(c2cc(-c3ccc(Cl)cc3)nc(-c3cccnc3)n2)C1` [Example 320, (1-(6-(4-chlorophenyl)-2-(pyridin-3-yl)pyrimidin-4-yl)azetidin-3-yl)methanol] fall in the same range of IC50: 10 to 100 nM for the first, 10 to 100 nM for the second.

`Oc1cccc(-c2nc(-c3ccc(Cl)cc3)cc(N3CC[C@H](O)C3)n2)c1` [Example 322, (S)-1-(6-(4-chlorophenyl)-2-(3-hydroxyphenyl)pyrimidin-4-yl)pyrrolidin-3-ol] and `O[C@H]1CCN(c2cc(-c3ccc(Cl)cc3)nc(-c3ccncc3)n2)C1` [Example 324, (S)-1-(6-(4-chlorophenyl)-2-(pyridin-4-yl)pyrimidin-4-yl)pyrrolidin-3-ol] cannot be ordered by IC50: greater than 1000 nM for the first, greater than 1000 nM for the second.

First: CS(=O)(=O)N1CCN(c2cc(-c3ccc(Cl)cc3)nc(-c3cncc(F)c3)n2)CC1 [Example 325, 4-(4-chlorophenyl)-2-(5-fluoropyridin-3-yl)-6-(4-(methylsulfonyl)piperazin-1-yl)pyrimidine]
Second: O=S(=O)(CCF)N1CCN(c2cc(-c3ccc(Cl)cc3)nc(-c3cccnc3)n2)CC1 [Example 335, 4-(4-chlorophenyl)-6-(4-((2-fluoroethyl)sulfonyl)piperazin-1-yl)-2-(pyridin-3-yl)pyrimidine]
The IC50 of the first is higher: 10 to 100 nM for the first, less than 10 nM for the second. The second is the more potent here.

`CS(=O)(=O)C1CCN(c2cc(-c3ccc(Cl)cc3)nc(-c3cccnc3)n2)CC1` [Example 326, 4-(4-chlorophenyl)-6-(4-(methylsulfonyl)piperidin-1-yl)-2-(pyridin-3-yl)pyrimidine] and `O=S(=O)(C1CC1)N1CCN(c2cc(-c3ccc(Cl)cc3)nc(-c3cccnc3)n2)CC1` [Example 328, 4-(4-chlorophenyl)-6-(4-(cyclopropylsulfonyl)piperazin-1-yl)-2-(pyridin-3-yl)pyrimidine] fall in the same range of IC50: 10 to 100 nM for the first, 10 to 100 nM for the second.

`O[C@H]1CCN(c2cc(-c3ccc(Cl)cc3)nc(-c3ccnnc3)n2)C1` [Example 329, (S)-1-(6-(4-chlorophenyl)-2-(pyridazin-4-yl)pyrimidin-4-yl)pyrrolidin-3-ol] and `O[C@H]1CCN(c2cc(-c3ccc(Cl)cc3)nc(-c3cnoc3)n2)C1` [Example 336, (S)-1-(6-(4-chlorophenyl)-2-(isoxazol-4-yl)pyrimidin-4-yl)pyrrolidin-3-ol] fall in the same range of IC50: 100 to 1000 nM for the first, 100 to 1000 nM for the second.

Compared with `OC1CCCN(c2cc(-c3ccc(Cl)cc3)nc(-c3cccnc3)n2)CC1` (centres unmarked) [Example 330, 1-(6-(4-chlorophenyl)-2-(pyridin-3-yl)pyrimidin-4-yl)azepan-4-ol], `CS(=O)(=O)C1(CO)CCN(c2cc(-c3ccc(Cl)cc3)nc(-c3cccnc3)n2)CC1` [Example 337, (1-(6-(4-chlorophenyl)-2-(pyridin-3-yl)pyrimidin-4-yl)-4-(methylsulfonyl)piperidin-4-yl)methanol] is lower in IC50: 10 to 100 nM for the first, less than 10 nM for the second.

First: CS(=O)(=O)N1CC2CC1CN2c1cc(-c2ccc(Cl)cc2)nc(-c2cccnc2)n1 (centres unmarked) [Example 331, 2-(6-(4-chlorophenyl)-2-(pyridin-3-yl)pyrimidin-4-yl)-5-(methylsulfonyl)-2,5-diazabicyclo[2.2.1]heptane]
Second: CS(=O)(=O)N1CCN(c2cc(-c3ccc(C(F)(F)F)cc3)nc(-c3cccnc3)n2)CC1 [Example 341, 4-(4-(methylsulfonyl)piperazin-1-yl)-2-(pyridin-3-yl)-6-(4-(trifluoromethyl)phenyl)pyrimidine]
The IC50 of the first is lower: less than 10 nM for the first, greater than 1000 nM for the second. The first is the more potent here.

`Cn1nnc(-c2nc(-c3ccc(Cl)cc3)cc(N3CC[C@H](O)C3)n2)n1` [Example 332, (S)-1-(6-(4-chlorophenyl)-2-(2-methyl-2H-tetrazol-5-yl)pyrimidin-4-yl)pyrrolidin-3-ol] and `Cn1nnc(-c2nc(-c3ccc(C(F)(F)F)cc3)cc(N3CC[C@H](O)C3)n2)n1` [Example 333, (S)-1-(2-(2-methyl-2H-tetrazol-5-yl)-6-(4-(trifluoromethyl)phenyl)pyrimidin-4-yl)pyrrolidin-3-ol] cannot be ordered by IC50: greater than 1000 nM for the first, greater than 1000 nM for the second.

With `Cn1nnc(-c2nc(-c3ccc(Cl)cc3)cc(N3CCN(S(C)(=O)=O)CC3)n2)n1` [Example 334, 4-(4-chlorophenyl)-2-(2-methyl-2H-tetrazol-5-yl)-6-(4-(methylsulfonyl)piperazin-1-yl)pyrimidine] the IC50 was greater than 1000 nM.
